Data: ChEMBL document CHEMBL5036360, “Pinguisane Sesquiterpenoids from the Chinese Liverwort Trocholejeunea sandvicensis and Their Anti-Inflammatory Activity” (J Nat Prod, 2022)
Activity calls are given as the source filed them. The rule behind the calls is not given here.

What was measured:
RAW264.7 [1] = assay: Cytotoxicity against mouse RAW264.7 cells […] measured after 24 hrs by MTT assay; format: cell-based; details: RAW264.7, 24 h
RAW264.7 [2] = assay: Antiinflammatory activity in mouse RAW264.7 cells assessed as inhibition of LPS-induced NO production at 100 uM measured after 24 hrs by Griess method; format: functional
Danio rerio = species on record: Danio rerio; assay: Antiinflammatory activity in transgenic fluorescent Zebrafish assessed as reduction in CuSO4 induced number of macrophage migration at 10 to 50 uM measured after 1 hr by fluorescence microscopic analysis; format: functional, organism-based; details: dose 10-50 µM

SMILES | IC50 (RAW264.7 [1]) | Activity (RAW264.7 [2]) | Activity (Danio rerio)
CO[C@@]12C[C@@]3(C)[C@H](C)CC[C@@]3(C)[C@H](C)C1=CC(=O)O2 | > 100 µM | inactive | 
C[C@@H]1CC[C@@]2(C)[C@H](C)C3=CC(=O)N[C@@H]3C[C@@]12C | > 100 µM | inactive | 
C[C@@H]1CC[C@@]2(C)[C@H](C)C3=CC(=O)NC3=C[C@@]12C | > 100 µM | inactive | 
CCOC(=O)/C=C1\C(=O)C[C@@]2(C)[C@H](C)CC[C@@]2(C)[C@@H]1C | > 100 µM | inactive | 
CC1=C(CC(=O)O)C(=O)C[C@@]2(C)[C@H](C)CC[C@@]12C | > 100 µM | inactive | 
CCOC(=O)C1=C(C)[C@]2(C)CC[C@@H](C)[C@]2(C)CC1=O | > 100 µM | inactive | 
C[C@@H]1CC[C@@]2(C)[C@H](C)C3=CC(=O)O[C@]3(O)C[C@@]12C | > 100 µM | 96.28% | inactive
CCO[C@@]12C[C@@]3(C)[C@H](C)CC[C@@]3(C)[C@H](C)C1=CC(=O)O2 | > 100 µM | 83.54% | Active
C=C1[C@@]2(CC=O)O[C@H](OC2=O)[C@@]2(C)[C@H](C)CC[C@@]12C | > 100 µM | 83.15% | inactive
C[C@@H]1CC[C@@]2(C)[C@H](C)[C@]3(C[C@@]12C)C(=O)O[C@H]1O[C@H]13 | > 100 µM | inactive | 
C=C1[C@]2(C)CC[C@@H](C)[C@]2(C)C[C@@]2(O)O[C@@H](OCC)[C@H](O)[C@@]12OCC | > 100 µM | inactive | 
